Source: patent US20030022241A1, “Methods” (priority 2001, published 2003)

Biological target: native MNK-2B (Homo sapiens, UniProt Q9HBH9)
Assay: NMR screening (Saturation Transfer Difference) for compounds binding Mnk2b
Conditions: screen: 1 μM native MNK-2B, 200 μM compound mixture; confirmation: 2 μM native Mnk2B, 250 μM individual compound; pH 7.5, 20° C.
Text: A diversity library consisting of relatively small and highly water-soluble compounds was used to screen native MNK-2B for binders by NMR (Nuclear Magnetic Resonance). The NMR tecinique used to identify binders was Saturation Transfer Difference (STD): the protein ^1H resonances are saturated by means of a weak radio-frequency field applied to a narrow spectral region. The saturation is transferred by spin diffusion to the rest of the protein and subsequently further to compounds that bind to the protein attenuating their signals in the NMR spectrum. The spectrum is then subtracted from a spectrum obtained at non-saturating conditions to obtain an STD spectrum showing only the signals from compounds interacting with the protein. In practice the pulse sequence is written in such a way that the subtraction is done automatically in every other scan, i.e. the individual spectra are never observed (Mayer & Meyer, Angew. Chem. Int. Ed., 38, 1784-1788, 1999).
The compounds in the library are divided into mixtures consisting of 4-8 compounds each. Each sample contained 1 μM native MNK-2B, 200 μM compound mixture, 50 mM sodium phosphate buffer, 1 mM DTT, pH 7.5 in ca 98% D2O/2% H2O. […] The volume was 600 μl and standard NMR tubes were used. […] A reference ^1H 1D experiment and an STD experiment were recorded on each sample. […]

Chain of native MNK-2B (Q9HBH9 1-414 isoform Q9HBH9-2): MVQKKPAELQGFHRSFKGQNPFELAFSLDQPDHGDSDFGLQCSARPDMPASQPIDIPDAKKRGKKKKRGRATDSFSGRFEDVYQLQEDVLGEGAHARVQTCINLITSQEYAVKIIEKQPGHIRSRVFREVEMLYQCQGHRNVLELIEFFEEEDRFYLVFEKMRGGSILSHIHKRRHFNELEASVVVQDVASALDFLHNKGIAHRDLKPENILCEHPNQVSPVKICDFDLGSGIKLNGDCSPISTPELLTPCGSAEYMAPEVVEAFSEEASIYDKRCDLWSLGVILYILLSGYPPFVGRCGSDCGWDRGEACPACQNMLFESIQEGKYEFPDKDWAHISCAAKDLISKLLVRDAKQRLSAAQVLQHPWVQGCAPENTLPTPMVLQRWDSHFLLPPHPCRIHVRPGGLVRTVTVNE

binding to Mnk2b by STD NMR (identified as ligand): identified as Mnk2b ligands
SMILES: COC(=O)c1ccc(O)cc1 [4-hydroxy-benzoic acid methyl ester]
